The results in this text go back to ChEMBL document CHEMBL4811216, “Chemotherapy for human schistosomiasis: how far have we come? What's new? Where do we go from here?” (RSC Med Chem, 2020).

In data set [1] the target is T1, Histone deacetylase 8 (Schistosoma mansoni, UniProt A5H660).
T1 sequence (A5H660 whole entry): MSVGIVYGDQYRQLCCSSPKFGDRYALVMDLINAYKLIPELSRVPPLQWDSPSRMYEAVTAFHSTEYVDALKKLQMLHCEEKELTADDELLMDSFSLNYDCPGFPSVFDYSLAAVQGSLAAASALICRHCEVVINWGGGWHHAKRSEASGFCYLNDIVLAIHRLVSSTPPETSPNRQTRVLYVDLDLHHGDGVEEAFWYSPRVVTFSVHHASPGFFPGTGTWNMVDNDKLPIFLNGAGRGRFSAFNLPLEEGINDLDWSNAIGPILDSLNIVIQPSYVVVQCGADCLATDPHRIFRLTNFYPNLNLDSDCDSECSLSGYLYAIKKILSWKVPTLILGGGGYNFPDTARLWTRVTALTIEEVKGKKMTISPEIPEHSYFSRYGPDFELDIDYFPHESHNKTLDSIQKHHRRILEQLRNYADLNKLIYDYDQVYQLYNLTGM
In words: Inhibition of Schistosoma mansoni HDAC8 expressed in Escherichia coli using Fluor de Lys as substrate incubated for 90 mins by fluorescence method.

Data set [2] concerns the target T2, Histone deacetylase 8 (Homo sapiens, UniProt Q9BY41).
T2 sequence (Q9BY41 whole entry): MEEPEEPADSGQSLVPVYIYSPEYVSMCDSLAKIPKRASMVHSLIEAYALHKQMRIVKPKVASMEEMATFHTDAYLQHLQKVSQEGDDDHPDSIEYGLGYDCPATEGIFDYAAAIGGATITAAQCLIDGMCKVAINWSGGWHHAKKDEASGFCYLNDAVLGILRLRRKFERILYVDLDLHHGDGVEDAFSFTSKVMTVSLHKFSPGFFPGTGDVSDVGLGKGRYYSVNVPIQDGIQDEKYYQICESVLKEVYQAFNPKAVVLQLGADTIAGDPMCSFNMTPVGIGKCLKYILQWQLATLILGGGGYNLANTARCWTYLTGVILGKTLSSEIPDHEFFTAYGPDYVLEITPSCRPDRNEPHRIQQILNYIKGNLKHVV
In words: Inhibition of human HDAC8 using Fluor de Lys as substrate incubated for 90 mins by fluorescence method.

Another data set addresses Histone deacetylase 1 (Homo sapiens, UniProt Q13547). In words: Inhibition of human HDAC1 (1 to 482 reidue) expressed in sf9 cells using ZMAL(Cbz-(Ac)Lys-AMC as substrate preincubated for 90 mins followed by trypsin addition and measured after 20 mins by fluorimetric method.
The target in data set [3] is T3, Protein deacetylase HDAC6 (Homo sapiens, UniProt Q9UBN7).
T3 sequence (Q9UBN7 whole entry): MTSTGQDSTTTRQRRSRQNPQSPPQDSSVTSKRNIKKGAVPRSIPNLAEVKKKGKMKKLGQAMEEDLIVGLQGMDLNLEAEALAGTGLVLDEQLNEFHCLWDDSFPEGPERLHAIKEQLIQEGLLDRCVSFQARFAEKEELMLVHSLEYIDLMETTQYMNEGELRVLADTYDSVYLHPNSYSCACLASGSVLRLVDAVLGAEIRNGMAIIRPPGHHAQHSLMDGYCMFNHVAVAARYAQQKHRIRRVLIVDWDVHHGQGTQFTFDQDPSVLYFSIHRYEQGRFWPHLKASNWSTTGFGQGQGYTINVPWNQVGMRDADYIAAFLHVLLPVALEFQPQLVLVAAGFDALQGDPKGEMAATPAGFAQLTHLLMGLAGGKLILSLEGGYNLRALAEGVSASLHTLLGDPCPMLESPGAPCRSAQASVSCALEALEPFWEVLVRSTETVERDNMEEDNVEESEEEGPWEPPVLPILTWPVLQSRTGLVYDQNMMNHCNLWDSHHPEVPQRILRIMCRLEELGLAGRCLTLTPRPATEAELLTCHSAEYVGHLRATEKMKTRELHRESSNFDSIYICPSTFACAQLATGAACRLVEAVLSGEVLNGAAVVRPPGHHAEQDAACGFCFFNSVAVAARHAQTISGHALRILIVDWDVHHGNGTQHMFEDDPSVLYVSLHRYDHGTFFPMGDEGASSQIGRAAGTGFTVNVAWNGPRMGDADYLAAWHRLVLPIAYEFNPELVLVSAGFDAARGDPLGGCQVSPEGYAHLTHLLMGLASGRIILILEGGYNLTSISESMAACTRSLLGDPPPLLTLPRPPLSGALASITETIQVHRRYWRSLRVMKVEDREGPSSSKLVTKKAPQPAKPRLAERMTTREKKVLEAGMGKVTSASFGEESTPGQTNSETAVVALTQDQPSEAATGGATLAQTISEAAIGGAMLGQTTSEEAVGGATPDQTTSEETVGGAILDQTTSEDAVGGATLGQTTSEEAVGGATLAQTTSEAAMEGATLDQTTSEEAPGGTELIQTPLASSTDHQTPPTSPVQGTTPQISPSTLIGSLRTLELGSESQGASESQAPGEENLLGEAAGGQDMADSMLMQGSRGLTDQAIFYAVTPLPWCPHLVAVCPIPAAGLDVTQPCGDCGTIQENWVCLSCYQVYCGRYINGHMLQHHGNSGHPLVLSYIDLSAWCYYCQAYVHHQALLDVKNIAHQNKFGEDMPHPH
In words: Inhibition of human HDAC6 using ZMAL(Cbz-(Ac)Lys-AMC as substrate preincubated for 90 mins followed by trypsin addition and measured after 20 mins by fluorimetric method.

The subject of data set [4] is Schistosoma mansoni. In words: Antischistosomal activity against Schistosoma mansoni infected in NMRI mouse assessed as worm burden reduction at 100 mg/kg, po administered as single dose relative to control. The data set is classed as functional. More on the design: scale not given: the % may be the effect or the level left.
Data set [5] concerns the target T4, HDAC1 (histone deacetylase 1) (Homo sapiens, UniProt Q13547). Kind of data set: Inhibition of human HDAC1 using Z-Lys(Ac)-AMC as substrate at 1 uM by fluorimetric method relative to control. The following applies: HDAC1 enzyme, probe Z-Lys(Ac)-AMC.
The target of data set [6] is T2, Histone deacetylase 8. In words: Inhibition of human HDAC8 using Fluor de Lys as substrate by fluorimetric method.
For data set [7], the target named is T3, Protein deacetylase HDAC6. In words: Inhibition of human HDAC6 using Z-Lys(Ac)-AMC as substrate by fluorimetric method.
The target of data set [8] is T1, Histone deacetylase 8. Kind of data set: Inhibition of Schistosoma mansoni HDAC8 using fluorogenic substrate by fluorescence method.
Data set [9] has as its target T4, HDAC1 (histone deacetylase 1). Kind of data set: Inhibition of human HDAC1 at 200 uM using Z-Lys(Ac)-AMC as substrate by fluorimetric method relative to control. The following applies: HDAC1 enzyme, probe Z-Lys(Ac)-AMC.
The subject of data set [10] is Schistosoma japonicum. In words: Antischistosomal activity against Schistosoma japonicum infected in ICR mouse assessed as total worm reduction at 250 mg/kg, po administered as single dose relative to control. Type of data set: functional. The arrangement: scale not given: the % may be the effect or the level left.
The test system of data set [11] is Schistosoma japonicum. In words: Schistosomicidal-activity against adult Schistosoma japonicum at 10 uM incubated for 72 hrs by inverted microscopic method relative to control. The data set is classed as functional.
The subject of data set [12] is Schistosoma mansoni. Kind of data set: Schistosomicidal-activity against Schistosoma mansoni schistosomula at 20 uM incubated for 48 hrs by Alamar Blue assay relative to control. The data set is classed as functional. A general note: Alamar Blue is a resazurin reagent that responds to reducing activity.
Data set [13] concerns Schistosoma mansoni. In words: Schistosomicidal-activity against Schistosoma mansoni schistosomula incubated for 48 hrs by Alamar Blue assay. The data set is classed as functional, organism-based.
The test system of data set [14] is Schistosoma mansoni. In words: Antischistosomal activity against juvenile Schistosoma mansoni assessed as worm death at 10 uM incubated for 120 hrs relative to control. The data set is classed as functional.
The test system of data set [15] is Schistosoma mansoni. Kind of data set: Antischistosomal activity against adult Schistosoma mansoni assessed as worm death at 10 uM incubated for 120 hrs relative to control. Type of data set: functional.
The subject of another data set is Schistosoma haematobium. In words: Antischistosomal activity against Schistosoma haematobium assessed as worm death at 10 uM incubated for 120 hrs relative to control. The data set is classed as functional.
The target of data set [16] is T5, Thioredoxin glutathione reductase (Schistosoma mansoni, UniProt Q962Y6).
T5 sequence (Q962Y6 whole entry): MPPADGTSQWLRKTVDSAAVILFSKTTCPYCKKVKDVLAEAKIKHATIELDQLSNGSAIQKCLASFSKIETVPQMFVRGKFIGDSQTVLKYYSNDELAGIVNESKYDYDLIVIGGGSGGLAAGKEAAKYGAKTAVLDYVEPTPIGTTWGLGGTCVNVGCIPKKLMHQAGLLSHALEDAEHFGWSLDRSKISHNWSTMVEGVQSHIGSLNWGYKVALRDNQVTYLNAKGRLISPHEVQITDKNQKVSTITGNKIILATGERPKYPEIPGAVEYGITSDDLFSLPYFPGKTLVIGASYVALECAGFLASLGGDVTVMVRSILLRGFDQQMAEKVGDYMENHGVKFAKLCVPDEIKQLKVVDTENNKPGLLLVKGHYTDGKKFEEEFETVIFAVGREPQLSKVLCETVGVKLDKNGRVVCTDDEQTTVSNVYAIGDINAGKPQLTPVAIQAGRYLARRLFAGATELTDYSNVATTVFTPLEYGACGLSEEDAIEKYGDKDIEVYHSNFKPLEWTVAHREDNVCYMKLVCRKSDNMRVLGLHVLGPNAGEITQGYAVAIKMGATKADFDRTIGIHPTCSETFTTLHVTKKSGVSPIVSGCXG
In words: Inhibition of Schistosoma mansoni thioredoxin glutathione reductase incubated for 30 mins by DTNB assay.

The subject of data set [17] is Schistosoma mansoni. In words: Antischistosomal activity against Schistosoma mansoni Schistosomula assessed as worm death at 10 uM incubated for 24 hrs relative to control. The data set is classed as functional.
In data set [18] the test system is Schistosoma japonicum. Kind of data set: Antischistosomal activity against Schistosoma japonicum assessed as worm death at 10 uM incubated for 120 hrs relative to control. The data set is classed as functional. The following applies: Schistosoma japonicum.

Histone deacetylase 1, sequence (Q13547 whole entry): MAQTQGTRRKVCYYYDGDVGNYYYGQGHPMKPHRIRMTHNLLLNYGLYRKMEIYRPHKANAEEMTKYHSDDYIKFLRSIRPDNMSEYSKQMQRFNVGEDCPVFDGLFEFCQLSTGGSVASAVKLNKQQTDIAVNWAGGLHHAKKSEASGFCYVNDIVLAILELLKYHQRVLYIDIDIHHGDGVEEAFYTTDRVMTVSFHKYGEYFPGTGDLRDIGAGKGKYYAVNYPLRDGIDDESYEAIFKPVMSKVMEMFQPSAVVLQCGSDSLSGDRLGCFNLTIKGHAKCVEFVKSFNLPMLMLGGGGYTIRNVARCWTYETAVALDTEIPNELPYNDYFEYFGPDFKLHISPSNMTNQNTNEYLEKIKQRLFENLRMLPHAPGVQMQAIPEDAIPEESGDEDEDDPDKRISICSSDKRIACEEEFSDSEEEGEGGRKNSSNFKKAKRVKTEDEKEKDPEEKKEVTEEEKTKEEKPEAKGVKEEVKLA
T4 sequence (Q13547 whole entry): as above

As a reminder, the IC50 is the concentration that gives 50% inhibition. Turning to `CCCCCCC(=O)N(O)C1CC(=O)C(c2ccc(Cl)cc2)C1=O` (stereo not given), the IC50 on Histone deacetylase 8 [1] came out at 5.5 µM; against Histone deacetylase 8 [2] it was 7.69 µM; against Histone deacetylase 1, 3.98 µM; in [3], 2.65 µM.

With `CC(C)NCC1CCc2cc(CO)c([N+](=O)[O-])cc2N1` (stereo not given) [OXAMNIQUINE], the Activity in the data set with Schistosoma mansoni [4] stood at 99.2%.

The term inhibition denotes the change of the read-out against control, counted positive when it falls. Turning to `CN1CCN(NC(=O)c2cccc(C(=O)NO)c2)CC1`, the inhibition at 1 µM in data set [5] is < 10%. For the same molecule, the IC50 at Histone deacetylase 8 [6] is 1.31 µM; in data set [7], 7.11 µM; at Histone deacetylase 8 [8], 0.75 µM. The molecule also registered an inhibition at 200 µM in data set [9] of 15.3%.

Regarding `O=C(C1CCCCC1)N1CC(=O)N2CCc3ccccc3C2C1` (stereo not given) [PRAZIQUANTEL], the Activity worked out at 62.4% in the data set on Schistosoma japonicum [10] and 37.5% in the data set with Schistosoma japonicum [11].

The term EC50 denotes the concentration needed to bring the measured effect to its halfway point. Take `O=C(/C=C/c1ccccc1Sc1ccc(Cl)cc1)NO`: the IC50 came to 0.18 µM against Histone deacetylase 8 [1], 0.18 µM on Histone deacetylase 8 [2], 7.7 µM on Histone deacetylase 1 and 3.2 µM in [3]. The same molecule displayed an Activity in the data set with Schistosoma mansoni [12] of 97%. In the data set on Schistosoma mansoni [13], this molecule came in with an EC50 of 11.8 µM.

In the case of `O=C(/C=C/c1ccccc1Oc1c(Cl)cccc1Cl)NO`, the IC50 on Histone deacetylase 8 [1] was 0.44 µM; at Histone deacetylase 8 [2] it was 0.47 µM; against Histone deacetylase 1, 20.2 µM; in [3] it was 8.2 µM. Besides, the Activity with Schistosoma mansoni [12] is reported as 89%. The 50% effective concentration (EC50) with Schistosoma mansoni [13] stood at 6.5 µM.

A word on the mortality: it is the percentage killed. On to `COc1ccc([N+](=O)[O-])c(S(=O)(=O)c2ccc(Cl)cc2)n1`, for which the mortality at 10 µM with Schistosoma mansoni [14] worked out at 57%; in the data set on Schistosoma mansoni [15], 67%; in the data set with Schistosoma haematobium, 48%; with Schistosoma mansoni [17], 100%; with Schistosoma japonicum [18], 30%. This molecule also registered an IC50 in [16] of 0.06 µM.

For the molecule `COc1ccc(C(Nc2cc(C)ccn2)c2ccc3ccc(C)nc3c2O)cc1` (stereo not given), the mortality at 10 µM with Schistosoma mansoni [14] is 24%; in the data set on Schistosoma mansoni [15] it was 53%; in the data set with Schistosoma mansoni [17] it was 20%; with Schistosoma japonicum [18], 56%. This molecule had a concentration for half-maximal inhibition (IC50) in data set [16] of 0.13 µM.
